Several values for one entry are separate records, joined by “and”; a condition that tells them apart may be missing. Equal values may be shown once. Read-outs that look alike come from different tables or passages of the source.
Tests used:
[1] = system: nine PDAC patient-derived organoids (PDOs); assay: PDO viability assay (CellTiter-Glo, 72 h), panel; assay type: cell-based; conditions: Homo sapiens; range among the nine PDOs; read-out: EC50 (monotherapy)
Experimental: Primary patient-derived PDAC organoid (PDO) experiments were performed in the laboratories of Prof. Maximilian Reichert (University Hospital of the TU Munich, Germany, PDO set 1: B250, B535, B678) and Prof. Jens T. Siveke (University Hospital Essen, Germany; PDO set 2: UME008, UME012, UME051, UME053, UME060, UME061). PDOs were generated from surgical resection, EUS-guided fine needle biopsy (EUS-FNB), or ascites (Appendix Table S2). Surgical specimens were first minced with a sterile scalpel and subsequently washed with Anti-Anti solution and washing medium (PDO set 1), or vice versa (PDO set 2; Appendix Table S3). Biopsy samples were directly washed with an Anti-Anti solution and washing medium. Samples were digested using 1 ml of digestion medium at 37 °C while shaking, and the enzymatic reaction was stopped by adding 15 ml of washing medium (Appendix Table S3). […]
For viability assays in PDOs, confluent organoids were removed from medium, and Matrigel was dissolved by adding 200 μl (PDO set 1) or 2 ml (PDO set 2) of Cell Recovery Solution (Corning), and additionally 500 μl of DPBS (PDO set 1 only). […] After 72 h, cell viability was measured using the CellTiter-Glo Luminescent Cell Viability Assay (Promega) diluted 1:5 in the final volume of the well. […]

[2] = system: PDO B250; assay: PDO viability assay (CellTiter-Glo, 72 h); assay type: cell-based, human; conditions: for pEC50: single replicates R1-R8
Experimental: (§1) Primary patient-derived PDAC organoid (PDO) experiments were performed in the laboratories of Prof. Maximilian Reichert (University Hospital of the TU Munich, Germany, PDO set 1: B250, B535, B678) and Prof. Jens T. Siveke (University Hospital Essen, Germany; PDO set 2: UME008, UME012, UME051, UME053, UME060, UME061). PDOs were generated from surgical resection, EUS-guided fine needle biopsy (EUS-FNB), or ascites (Appendix Table S2). Surgical specimens were first minced with a sterile scalpel and subsequently washed with Anti-Anti solution and washing medium (PDO set 1), or vice versa (PDO set 2; Appendix Table S3). Biopsy samples were directly washed with an Anti-Anti solution and washing medium. Samples were digested using 1 ml of digestion medium at 37 °C while shaking, and the enzymatic reaction was stopped by adding 15 ml of washing medium (Appendix Table S3). If samples of PDO set 1 were blood-stained, tissue pellets were first incubated with ACK lysing buffer/red blood cells lysis buffer (Thermo Fisher Scientific) for 5 min and then digested using TrypLE (Thermo Fisher Scientific). The reversed procedure was applied for blood-stained samples of PDO set 2. For PDO generation from ascites, the material was first spun down at 500 × g for 5 min. Then, washing medium was added and the suspension was centrifuged at 300 × g for 5 min. If the pellet was blood-stained, ACK lysis buffer was added and incubated at room temperature.
(§2) For viability assays in PDOs, confluent organoids were removed from medium, and Matrigel was dissolved by adding 200 μl (PDO set 1) or 2 ml (PDO set 2) of Cell Recovery Solution (Corning), and additionally 500 μl of DPBS (PDO set 1 only). Samples were transferred into a falcon and incubated on ice for 30 min, followed by centrifugation at 300 × g at 4 °C for 5 min (after adding 10 ml washing medium for PDO set 2). Subsequently, TrypLE Express Enzyme (Thermo Fisher) was added to cell pellets and incubated for 2 × 5 min at 37 °C. The enzymatic reaction was quenched by DPBS (PDO set 1) or washing medium (PDO set 2), and samples were washed by centrifugation at 300 × g at 4 °C for 5 min. Five hundred cells/well were seeded in 384-well plates (Corning) in 50 μl of PDO medium containing 10% Matrigel. To allow PDO generation, cells were incubated for 4 days at 37 °C and 5% CO2. […] Experiments were pipetted manually (PDO set 1) or automatically using a TECAN D300e Digital Dispenser (HP; PDO set 2). Treatments were performed in eight replicates, except for PDO PPES045 (quadruplicates). After 72 h, cell viability was measured using the CellTiter-Glo Luminescent Cell Viability Assay (Promega) diluted 1:5 in the final volume of the well. After 20 min of incubation at room temperature under gentle shaking, the acquisition was performed in the microplate reader VantaSTAR (BMG Labtech) using 3000 gain for the amplification measurement of a detected signal (PDO set 1) or the Spark Multimode microplate reader (TECAN) at 800 ms integration time (PDO set 2).

[3] = system: PDO B535; assay: PDO viability assay (CellTiter-Glo, 72 h); assay type: cell-based, human; conditions: for pEC50: single replicates R1-R8
Experimental: as §1, §2

[4] = system: PDO B678; assay: PDO viability assay (CellTiter-Glo, 72 h); assay type: cell-based, human
Experimental: as §1, §2

[5] = system: PDO UME008; assay: PDO viability assay (CellTiter-Glo, 72 h); assay type: cell-based, human;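 for Curve top: fraction of plate-wise median vehicle signal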
Experimental: as §1, §2

[6] = system: PDO UME060; assay: PDO viability assay (CellTiter-Glo, 72 h); assay type: cell-based, human;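 for Curve top: fraction of plate-wise median vehicle signal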
Experimental: as §1, §2

[7] = system: RPS6KA6; set-up: method as in Reinecke et al. (2023); conditions: RPS6KA6, 5 cell line mix lysate, Kinobeads ε, ref Reinecke et al. (2023), cited from earlier work
[8] = Experiment GEM (GEM alone), single replicates R1-R8, read-out: EC50
[9] = Experiment GEM+ATRi_dose1 (ATRi = Elimusertib)
[10] = Experiment GEM+ATRi_dose1 (ATRi = Elimusertib), single replicates R1-R8, read-out: EC50
[11] = Homo sapiens, Experiment GEM (GEM alone), mean of replicates, read-out: EC50 mean
[12] = Homo sapiens, Experiment GEM+ATRi_dose1 (ATRi = Elimusertib), mean of replicates, read-out: EC50 mean
[13] = Homo sapiens, Experiment GEM+ATRi_dose2 (ATRi = Elimusertib), mean of replicates, read-out: EC50 mean
[14] = Homo sapiens, GEM alone, read-out: EC50 mean
[15] = Homo sapiens, Experiment GEM+ATRi_dose3 (ATRi = Elimusertib), mean of replicates, read-out: EC50 mean
[16] = PDO UME008, GEM + Elimusertib (ATRi) dose1, per replicate
[17] = PDO UME008, GEM + Elimusertib (ATRi) dose2, per replicate
[18] = PDO UME008, GEM + Elimusertib (ATRi) dose3, per replicate
[19] = PDO UME008, GEM alone, per replicate

Nc1ccn([C@@H]2O[C@H](CO)[C@@H](O)C2(F)F)c(=O)n1 [GEM, Gemcitabine]
EC50 [1]: 0.003 to 0.285 µM
pEC50 ([2]; Experiment GEM (GEM alone)): 6.73 and 6.37 and 6.71 and 6.62 and 6.75 and 6.40 and 6.58 and 6.41
EC50 [2, 8]: 0.185 µM and 0.427 µM and 0.194 µM and 0.239 µM and 0.177 µM and 0.398 µM and 0.263 µM and 0.393 µM
pEC50 [2, 9]: 6.29 and 6.41 and 6.85 and 6.58 and 6.87 and 7.26 and 6.73 and 6.74
EC50 [2, 10]: 0.516 µM and 0.389 µM and 0.14 µM and 0.262 µM and 0.135 µM and 0.0549 µM and 0.185 µM and 0.183 µM
EC50 [2, 11]: 0.285 µM
EC50 [2, 12]: 0.233 µM
EC50 [2, 13]: 0.265 µM
EC50 [2, 14]: 0.285 µM
pEC50 ([3]; Experiment GEM (GEM alone)): 8.39 and 8.78 and 8.35 and 8.91
EC50 [3, 8]: 0.00405 µM and 0.00164 µM and 0.00244 µM and 0.00443 µM and 0.00123 µM
pEC50 [3, 9]: 8.24 and 8.20 and 8.63 and 8.99 and 8.75 and 8.16
EC50 [3, 10]: 0.00581 µM and 0.00633 µM and 0.00306 µM and 0.00233 µM and 0.00102 µM and 0.00178 µM and 0.00697 µM
pEC50 ([3]; Experiment GEM+ATRi_dose3 (ATRi = Elimusertib)): 9.08 and 8.91 and 9.48 and 9.75 and 9.91 and 9.06
EC50 [3, 12]: 0.0039 µM
EC50 [3, 15]: 0.00059 µM
pEC50 ([4]; Experiment GEM+ATRi_dose1 (ATRi = Elimusertib), single replicates R1-R8): 6.49 and 6.68 and 7.12 and 6.42 and 6.56 and 6.26
EC50 [4, 10]: 0.321 µM and 0.209 µM and 0.0766 µM and 0.382 µM and 0.273 µM and 0.548 µM and 0.379 µM
EC50 [4, 11]: 0.247 µM
EC50 [4, 12]: 0.313 µM
EC50 [4, 13]: 0.156 µM
EC50 [4, 15]: 0.209 µM
EC50 [4, 14]: 0.247 µM
EC50 ([5]; Homo sapiens, PDO UME008, GEM + Elimusertib (ATRi) dose1, mean of replicates, read-out: EC50 mean): 0.00572 µM
EC50 ([5]; Homo sapiens, PDO UME008, GEM + Elimusertib (ATRi) dose1, per replicate, read-out: EC50): 0.00599 µM
EC50 ([5]; Homo sapiens, PDO UME008, GEM + Elimusertib (ATRi) dose1, per replicate, read-out: pEC50 (converted)): 0.00603 µM
EC50 ([5]; Homo sapiens, PDO UME008, GEM alone, mean of replicates, read-out: EC50 mean): 0.0264 µM
EC50 ([5]; Homo sapiens, PDO UME008, GEM alone, read-out: EC50 mean): 0.0264 µM
EC50 ([5]; Homo sapiens, SET-2, PDO UME008 (PDO set 2), Experiment GEM (GEM alone), mean of replicates, read-out: EC50 mean): 0.0264 µM
EC50 ([5]; Homo sapiens, SET-2, PDO UME008 (PDO set 2), Experiment GEM (GEM alone), single replicates, read-out: EC50): 0.0353 µM
EC50 ([5]; Homo sapiens, SET-2, PDO UME008 (PDO set 2), Experiment GEM (GEM alone), single replicates, read-out: pEC50 (converted)): 0.0355 µM
EC50 ([5]; Homo sapiens, SET-2, PDO UME008 (PDO set 2), Experiment GEM+ATRi_dose1 (ATRi = Elimusertib), mean of replicates, read-out: EC50 mean): 0.00572 µM
EC50 ([5]; Homo sapiens, SET-2, PDO UME008 (PDO set 2), Experiment GEM+ATRi_dose1 (ATRi = Elimusertib), single replicates, read-out: EC50): 0.00447 µM
EC50 ([5]; Homo sapiens, SET-2, PDO UME008 (PDO set 2), Experiment GEM+ATRi_dose1 (ATRi = Elimusertib), single replicates, read-out: pEC50 (converted)): 0.00447 µM
Curve slope [5, 16]: 0.15 and 0.09 and 0.06 and 0.14 and 0.13 and 0.10 and 0.08
Curve top [5, 16]: 0.83 and 1.39 and 1.43 and 1.58
pEC50 [5, 16]: 8.33 and 8.31 and 8.10 and 8.30 and 8.17
EC50 ([5]; PDO UME008, GEM + Elimusertib (ATRi) dose1, per replicate, read-out: EC50): 0.00468 µM and 0.00487 µM and 0.00608 µM and 0.00793 µM and 0.00497 µM and 0.00677 µM
Curve slope [5, 17]: 0.07 and 0.08 and 0.13 and 0.0742 and 0.12
Curve top [5, 17]: 1.01 and 1.56 and 1.34 and 1.60 and 1.61 and 1.89
pEC50 [5, 17]: 8.24 and 8.33 and 8.77
EC50 ([5]; PDO UME008, GEM + Elimusertib (ATRi) dose2, per replicate, read-out: EC50): 0.00577 µM and 0.00311 µM and 0.00473 µM and 0.00169 µM
Curve slope [5, 18]: 0.10 and 0.07 and 0.08 and 0.0752 and 0.11 and 0.09
Curve top [5, 18]: 1.25 and 0.88 and 1.26
pEC50 [5, 18]: 8.27 and 8.67 and 8.63 and 8.23 and 8.28
EC50 ([5]; PDO UME008, GEM + Elimusertib (ATRi) dose3, per replicate, read-out: EC50): 0.00248 µM and 0.00532 µM and 0.00213 µM and 0.0033 µM and 0.00233 µM and 0.0059 µM and 0.00531 µM
Curve slope [5, 19]: 0.43 and 0.44 and 0.47 and 0.36 and 0.39
Curve top [5, 19]: 0.95 and 1.46
pEC50 [5, 19]: 7.56 and 8.15 and 7.44 and 7.69 and 7.32 and 8.00
EC50 ([5]; PDO UME008, GEM alone, per replicate, read-out: EC50): 0.0274 µM and 0.00709 µM and 0.0366 µM and 0.0204 µM and 0.048 µM and 0.0101 µM
EC50 ([6]; Homo sapiens, PDO UME060, GEM alone, read-out: EC50 mean): 0.0234 µM
EC50 ([6]; Homo sapiens, PDO UME060, experiment GEM (GEM alone), mean of replicates, read-out: EC50 mean): 0.0234 µM
EC50 ([6]; PDO UME060, PDO set 2, experiment GEM (GEM alone), single replicates, read-out: EC50): 0.0318 µM and 0.0304 µM and 0.0222 µM and 0.0148 µM and 0.0218 µM and 0.0395 µM and 0.0177 µM and 0.00922 µM
Curve top ([6]; PDO UME060, experiment GEM (GEM alone), curve fit): 1.00 and 0.88 and 1.04 and 0.95 and 1.07 and 0.83 and 1.30
pEC50 ([6]; PDO UME060, experiment GEM (GEM alone), single replicates): 7.50 and 7.52 and 7.65 and 7.83 and 7.66 and 7.40 and 7.75 and 8.04

COc1cc(N2CCC(N3CCN(C)CC3)CC2)ccc1Nc1ncc(Cl)c(Nc2ccccc2P(C)(C)=O)n1 [Brigatinib]
EC50 [7]: 0.0936 µM
pKDapp [7]: 7.40
Kd ([7]; read-out: KDapp): 0.0395 µM
